ChEMBL document CHEMBL4813973, “Discovery of novel N-benzylbenzamide derivatives as tubulin polymerization inhibitors with potent antitumor activities” (Eur J Med Chem, 2021)
Converted amounts (≈) assume the structure as drawn.

Tests used:
A-431 = assay: Antiproliferative activity against human A-431 cells assessed as reduction in cell viability incubated for 72 hrs by MTT assay; type: functional, cell-based; conditions: A-431, 72 h
HCT-8 [1] = assay: Antiproliferative activity against human HCT-8 cells assessed as reduction in cell viability incubated for 72 hrs by MTT assay; type: functional, cell-based; conditions: Homo sapiens, HCT-8, 72 h; read-out: IC50
MDA-MB-231 = assay: Antiproliferative activity against human MDA-MB-231 cells assessed as reduction in cell viability incubated for 72 hrs by MTT assay; type: functional, cell-based; conditions: MDA-MB-231, 72 h
H22 [2] = assay: Antiproliferative activity against mouse H22 cells assessed as reduction in cell viability incubated for 72 hrs by MTT assay; type: functional, cell-based; conditions: H22, 72 h
L02 = assay: Cytotoxicity against human L02 cells assessed as reduction in cell viability incubated for 72 hrs by MTT assay; type: cell-based; conditions: L02, 72 h
[3] = Aqueous solubility of the compound in phosphate buffer at pH 7.4 by HPLC-UV analysis; type: physicochemical
[4] = Aqueous solubility of the compound in aqueous HCl at pH 2 by HPLC-UV analysis; type: physicochemical
[5] = n-Octanol/water partition coefficient, logD of the compound incubated for 24 hrs at pH 7.4 by HPLC analysis; type: physicochemical
HepG2 = assay: cells; conditions: Homo sapiens, HepG2, 72 h
K562 = assay: cells; conditions: Homo sapiens, K562, 72 h
Description: Antiproliferative activity against human K562 cells assessed as reduction in cell viability incubated for 72 hrs by MTT assay

Bel-7402 = assay: Antiproliferative activity against ADR-resistant human Bel-7402 cells assessed as reduction in cell viability incubated for 72 hrs by MTT assay; type: functional, cell-based; conditions: Homo sapiens, Bel-7402, 72 h; read-out: IC50
[6] = Resistant index, ratio of IC50 for ADR-resistant human Bel-7402 cells to IC50 for human Bel-7402 cells; type: functional
HCT-8 [7] = assay: Antiproliferative activity against taxol-resistant human HCT-8 cells assessed as reduction in cell viability incubated for 72 hrs by MTT assay; type: functional, cell-based; conditions: Homo sapiens, HCT-8, 72 h; read-out: IC50
[8] = Resistant index, ratio of IC50 for taxol-resistant human HCT-8 cells to IC50 for human HCT-8 cells; type: functional
[9] = Resistant index, ratio of IC50 for VCR resistant human K562 cells to IC50 for human K562 cells; type: functional
[10] = Inhibition of pig brain tubulin polymerisation incubated for 30 mins and measured every 2 mins for 60 mins by spectrophotometric method; type: tissue-based, Sus scrofa
Sus scrofa [11] = species: Sus scrofa; assay: Inhibition of [3H]colchicine binding to biotinylated pig brain tubulin at 1 uM incubated for 2 hrs in presence of GTP by competitive scintillation proximity assay; type: tissue-based
Sus scrofa [12] = species: Sus scrofa; assay: Inhibition of [3H]colchicine binding to biotinylated pig brain tubulin at 5 uM incubated for 2 hrs in presence of GTP by competitive scintillation proximity assay; type: tissue-based
H22 [13] = assay: Antitumor activity against […] xenografted in ICR mouse assessed as reduction of tumor weight at 20 mg/kg/day, iv for 21 days; type: functional; conditions: 504 h, time 21 day

## COc1ccc(CNC(=O)c2cc(NCc3ccco3)ccc2N2CCOCC2)cc1O
A-431
  IC50: 315 nM

## COc1ccc(CNC(=O)c2cc([N+](=O)[O-])ccc2N2CCOCC2)cc1OC
A-431
  IC50: > 1000 nM

## COc1ccc(CNC(=O)c2cc([N+](=O)[O-])ccc2N(C)C)cc1O
A-431
  IC50: > 1000 nM

## COc1cc(CNC(=O)c2cc([N+](=O)[O-])ccc2N2CCOCC2)cc(OC)c1OC
A-431
  IC50: > 1000 nM

## COc1ccc(CNC(=O)c2cc(Br)ccc2N2CCCCC2)cc1O
A-431
  IC50: 92 nM

## COc1ccc(CNC(=O)c2cc(NC(=O)c3ccco3)ccc2N2CCOCC2)cc1O
A-431
  IC50: 478 nM

## O=C(NCc1ccc(C(F)(F)F)cc1)c1cc([N+](=O)[O-])ccc1N1CCOCC1
A-431
  IC50: > 1000 nM

## COc1ccc(CNC(=O)c2cc(F)ccc2N2CCCCC2)cc1O
A-431
  IC50: 25 nM
HCT-8 [1]
  IC50: 29 nM
MDA-MB-231
  IC50: 86 nM
H22 [2]
  IC50: 32 nM
L02
  IC50: 88 nM
[3]
  solubility: < 1 µg/mL
[4]
  solubility: 1110 µg/mL (≈ 3090 µM)
[5]
  logD at 24 h: 2.97
HepG2
  IC50: 26 nM
K562
  IC50: 11 nM

## COc1ccc(CNC(=O)c2cc([N+](=O)[O-])ccc2N2CCCC2)cc1O
A-431
  IC50: 372 nM

## COc1ccc(CNC(=O)c2cc(C(F)(F)F)ccc2N2CCCCC2)cc1O
A-431
  IC50: 97 nM

## COc1ccc(-c2ccc(N3CCOCC3)c(C(=O)NCc3ccc(OC)c(O)c3)c2)cc1
A-431
  IC50: 154 nM

## O=C(NCc1ccncc1)c1cc([N+](=O)[O-])ccc1N1CCOCC1
A-431
  IC50: > 1000 nM

## COc1ccc(CNC(=O)c2cc([N+](=O)[O-])ccc2N2CCOCC2)cn1
A-431
  IC50: > 1000 nM

## CN(C)c1ccc(CNC(=O)c2cc([N+](=O)[O-])ccc2N2CCOCC2)cc1
A-431
  IC50: 145 nM

## COc1ccc(CNC(=O)c2ccccc2N2CCCCC2)cc1O
A-431
  IC50: 30 nM
HCT-8 [1]
  IC50: 29 nM
MDA-MB-231
  IC50: 29 nM
H22 [2]
  IC50: 29 nM
L02
  IC50: 97 nM
HepG2
  IC50: 31 nM
K562
  IC50: 30 nM

## CSc1ccc(CNC(=O)c2cc([N+](=O)[O-])ccc2N2CCOCC2)cc1
A-431
  IC50: 221 nM

## COc1ccc(C(C)NC(=O)c2cc([N+](=O)[O-])ccc2N2CCOCC2)cc1 (stereo not drawn)
A-431
  IC50: 241 nM

## COc1ccc(CNC(=O)c2cc(-c3ccncc3)ccc2N2CCOCC2)cc1O
A-431
  IC50: 388 nM

## COc1ccc(C(=O)Nc2ccc(N3CCOCC3)c(C(=O)NCc3ccc(OC)c(O)c3)c2)cc1
A-431
  IC50: > 1000 nM

## COc1ccc(CNC(=O)c2cc([N+](=O)[O-])ccc2N2CCOCC2)cc1F
A-431
  IC50: 93 nM

## COc1ccc(CNC(=O)c2cc([N+](=O)[O-])ccc2N2CCSCC2)cc1O
A-431
  IC50: 60 nM
HCT-8 [1]
  IC50: 60 nM
MDA-MB-231
  IC50: 62 nM
H22 [2]
  IC50: 55 nM
L02
  IC50: 113 nM
HepG2
  IC50: 58 nM
K562
  IC50: 49 nM

## COc1ccc(CNC(=O)c2ccncc2N2CCOCC2)cc1O
A-431
  IC50: 118 nM

## COc1ccc(CNC(=O)c2ccc([N+](=O)[O-])cc2N2CCOCC2)cc1O
A-431
  IC50: 224 nM

## COc1ccc(CNC(=O)c2cc([N+](=O)[O-])ccc2N2CCOCC2)cc1
A-431
  IC50: 127 nM

## COc1ccc(CNC(=O)c2cc(Cl)ccc2N2CCOCC2)cc1O
A-431
  IC50: 25 nM
HCT-8 [1]
  IC50: 25 nM
MDA-MB-231
  IC50: 30 nM
H22 [2]
  IC50: 31 nM
L02
  IC50: 95 nM
HepG2
  IC50: 29 nM
K562
  IC50: 32 nM

## COc1ccc(N2CCCCC2)c(C(=O)NCc2ccc(OC)c(O)c2)c1
A-431
  IC50: 57 nM

## COc1ccc(CNC(=O)c2cc(Br)ccc2N2CCOCC2)cc1O
A-431
  IC50: 30 nM
HCT-8 [1]
  IC50: 30 nM
MDA-MB-231
  IC50: 29 nM
H22 [2]
  IC50: 24 nM
L02
  IC50: 108 nM
HepG2
  IC50: 31 nM
K562
  IC50: 24 nM

## COc1ccc(CNC(=O)c2cc(O)ccc2N2CCOCC2)cc1O
A-431
  IC50: 121 nM

## COc1ccc(N2CCOCC2)c(C(=O)NCc2ccc(OC)c(O)c2)c1
A-431
  IC50: 28 nM
HCT-8 [1]
  IC50: 27 nM
MDA-MB-231
  IC50: 29 nM
H22 [2]
  IC50: 32 nM
L02
  IC50: 52 nM
HepG2
  IC50: 29 nM
K562
  IC50: 61 nM

## COCCNc1ccc([N+](=O)[O-])cc1C(=O)NCc1ccc(OC)c(O)c1
A-431
  IC50: > 1000 nM

## COc1ccc(/C=C\c2cc(OC)c(OC)c(OC)c2)cc1O [COMBRETASTATIN A4]
H22 [2]
  IC50: 15 nM
Bel-7402
  IC50: 58 nM
[6]
  Ratio IC50: 5.3
HCT-8 [7]
  IC50: 87 nM
[8]
  Ratio IC50: 7.9
[9]
  Ratio IC50: 8.1
[3]
  solubility: 1 µg/mL (≈ 3.16 µM)
[4]
  solubility: < 1 µg/mL
[5]
  logD at 24 h: 2.68
[10]
  IC50: 2640 nM
Sus scrofa [11]
  inhibition: 80.2%
Sus scrofa [12]
  inhibition: 90.3%
H22 [13]
  inhibition in vivo at 20 mg/kg/day: 54.9%
HepG2
  IC50: 10 nM

## COc1ccc(CNC(=O)c2cnccc2N2CCOCC2)cc1O
A-431
  IC50: 977 nM

## O=C(OCc1cccc2[nH]ccc12)c1cc([N+](=O)[O-])ccc1N1CCOCC1
A-431
  IC50: > 1000 nM

## COc1ccc(CNC(=O)c2cc([N+](=O)[O-])ccc2N2CCS(=O)(=O)CC2)cc1O
A-431
  IC50: > 1000 nM

## COc1ccc(CNC(=O)c2cc(-c3ccco3)ccc2N2CCOCC2)cc1O
A-431
  IC50: 215 nM

## COc1ccc(CNC(=O)c2cc([N+](=O)[O-])ccc2N2CCOCC2)cc1O
A-431
  IC50: 45 nM
HCT-8 [1]
  IC50: 60 nM
MDA-MB-231
  IC50: 57 nM
H22 [2]
  IC50: 50 nM
L02
  IC50: 116 nM
HepG2
  IC50: 61 nM
K562
  IC50: 59 nM

## COc1ccc(CNC(=O)c2cc([N+](=O)[O-])ccc2N2CCCCC2)cc1O
A-431
  IC50: 12 nM
HCT-8 [1]
  IC50: 11 nM
MDA-MB-231
  IC50: 29 nM
H22 [2]
  IC50: 25 nM
L02
  IC50: 120 nM
HepG2
  IC50: 12 nM
K562
  IC50: 19 nM

## COc1ccc(CNc2ccc(N3CCOCC3)c(C(=O)NCc3ccc(OC)c(O)c3)c2)cc1
A-431
  IC50: 306 nM

## O=C(NCc1ccc(O)cc1)c1cc([N+](=O)[O-])ccc1N1CCOCC1
A-431
  IC50: > 1000 nM

## COc1ccc(CNC(=O)c2cc(NC(=O)c3ccncc3)ccc2N2CCOCC2)cc1O
A-431
  IC50: 962 nM

## O=C(NCc1ccc(OC(F)(F)F)cc1)c1cc([N+](=O)[O-])ccc1N1CCOCC1
A-431
  IC50: > 1000 nM

## COc1ccc(CNC(=O)c2cc(N(C)C)ccc2N2CCOCC2)cc1O
A-431
  IC50: 105 nM

## COc1ccc(CNC(=O)c2cc([N+](=O)[O-])ccc2N2CCNCC2)cc1O
A-431
  IC50: > 1000 nM

## COc1ccc(CNC(=O)c2cc(C(F)(F)F)ccc2N2CCOCC2)cc1O
A-431
  IC50: 37 nM
HCT-8 [1]
  IC50: 56 nM
MDA-MB-231
  IC50: 57 nM
H22 [2]
  IC50: 55 nM
L02
  IC50: 103 nM
HepG2
  IC50: 62 nM
K562
  IC50: 40 nM

## COc1ccc(/C=C\c2cc(OC)c(OC)c(OC)c2)cc1OP(=O)(O)O [FOSBRETABULIN]
H22 [13]
  inhibition in vivo at 20 mg/kg/day: 62.7%

## O=C(NCc1ccc(Cl)cc1)c1cc([N+](=O)[O-])ccc1N1CCOCC1
A-431
  IC50: > 1000 nM

## CCOc1ccc(CNC(=O)c2cc([N+](=O)[O-])ccc2N2CCOCC2)cc1
A-431
  IC50: 143 nM

## CCN(CC)c1ccc([N+](=O)[O-])cc1C(=O)NCc1ccc(OC)c(O)c1
A-431
  IC50: 51 nM

## COc1ccc(CNC(=O)c2cc(NC(C)=O)ccc2N2CCOCC2)cc1O
A-431
  IC50: 220 nM

## COc1ccc(CNC(=O)c2cc(NCc3ccncc3)ccc2N2CCOCC2)cc1O
A-431
  IC50: 1080 nM

## O=C(OCc1ccc2[nH]ccc2c1)c1cc([N+](=O)[O-])ccc1N1CCOCC1
A-431
  IC50: > 1000 nM

## COc1ccc(CNC(=O)c2ccccc2N2CCOCC2)cc1O
A-431
  IC50: 20 nM
HCT-8 [1]
  IC50: 62 nM
MDA-MB-231
  IC50: 55 nM
H22 [2]
  IC50: 49 nM
L02
  IC50: 105 nM
HepG2
  IC50: 48 nM
K562
  IC50: 30 nM
